The molecules below were run on benzodiazepine receptors (assay: In vivo displacement of 3H-flunitrazepam from brain benzodiazepine receptors). Details: mice (female, NMR), test substance i.p. 15 min before 3H-FNM i.v.; dose inhibiting 50% of specific 3H-FNM binding in forebrain.
Text: The pharmaceutical properties of the compounds of the invention can be illustrated by determining their capability for displacing radioactivity labelled flunitrazepam from benzodiazepine receptors.
The displacement activity of the compounds of the invention may be found by determining the ED50 value. The ED50 value represents the dose (mg/kg) of a test substance which causes the specific binding of flunitrazepam to benzodiazepine receptors in a living brain to be reduced to 50% of the control value.
Such an in vivo test is carried out as follow:
Principle. Twenty minutes after a dose of ^3 H-flunitrazepam (^3 H-FNM) (200 μCi/kg, i.v.) the amount of specific ^3 H-FNM binding to brain benzodiazepine receptors has reached its maximal value.
Test procedure. Suspensions of test substances (2 mg/ml) are prepared in 5% Duphasol-X (TM Duphar, caster oil-ethylene oxide derivative for emulsifying and solubilizing oil and other water-insoluble substances) by sonification for 10 min using a Branson B15 microtip ultrasonifier (setting 7). Groups of three mice (female, NMR, 18-22 grams) are injected with the test substance at 100 mg/kg intraperitoneally. Fifteen minutes after test substance administration the mice are challenged with 4 μCi intravenously of ^3 H-FNM (70-90 Ci/mole) in 200 μl physiological saline. Twenty minutes after ^3 H-FNM administration mice are sacrificed by decapitation, the forebrains rapidly excised (within 30 sec) and homogenized in 12 ml of icecold 25 mM KH2 PO4, pH 7.1, using an Ultra-Turrax™ homogenizer fitted with an N 10 shaft. Two aliquots of 1 ml are immediately filtered through Whatman GF/C glassfibre filters and washed with 2×5 ml of the above mentioned buffer. The amounts of radioactivity on the filters are determined by conventional scintillation counting. One group of untreated mice serves as control. One to three mice are injected with 25 μg/kg clonazepam i.p. 30 minutes before ^3 H-FNM to determine the amount of non-specific ^3 H-FNM binding, which should be between 8-15% of total binding. When doses of 100 mg/kg inhibit more than 50% of specific ^3 H-flunitrazepam binding, test substances are administered in doses, which are factors of 3.16 times lower than 100 mg/kg. The ED50 for a test substance is defined as that dose which inhibits 50% of specific ^3 H-FNM binding. Specific binding is the amount of binding in controls minus the amount of binding in clonazepam-treated mice.
Results. The ED50 value is determined from dose response curves. If only one dose of test substance is administered the ED50 value is calculated as follows, provided that the inhibition of specific binding is within the range of 25-75%: [formula] where Co is specific binding in controls of Cx is specific binding in mice treated with test substance.

**Q.** With `CCOC(=O)c1cccc2c1C(=O)N(C)Cc1c(-c3noc(C)n3)ncn1-2` as the molecule, how does the “In vivo displacement activity: ED50” value read?
**A.** 1.5 mg/kg

**Q.** With `CCc1noc(-c2cccc3c2C(=O)N(C)Cc2c(-c4nc(CC)no4)ncn2-3)n1` as the molecule, how does the “In vivo displacement activity: ED50” value read?
**A.** 1.3 mg/kg

**Q.** For `COC(=O)c1cccc2c1C(=O)N(C)Cc1c(-c3nc(C4CC4)no3)ncn1-2`, which “In vivo displacement activity: ED50” value is on record?
**A.** 0.4 mg/kg

**Q.** How did the “In vivo displacement activity: ED50” value turn out when `Cc1nc(-c2ncn3c2CN(C)C(=O)c2c(-c4nc(-c5ccccc5)no4)cccc2-3)no1` was run?
**A.** 1.7 mg/kg

**Q.** How did the “In vivo displacement activity: ED50” value turn out when `CCOC(=O)c1cccc2c1C(=O)N(C)Cc1c(-c3nc(C4CC4)no3)ncn1-2` was run?
**A.** 1.4 mg/kg
